# Target: T1, receptor 5.24 (Carassius auratus, UniProt Q9PW88)
# T1 construct: The receptor 5.24 full length cDNA detects 1-2 bands in genomic DNA blots; expressed in transfected cells; host or cells: HEK 293 cells expressing SV40 large T antigen (293-TSA)
# T1 sequence (Q9PW88 25-877): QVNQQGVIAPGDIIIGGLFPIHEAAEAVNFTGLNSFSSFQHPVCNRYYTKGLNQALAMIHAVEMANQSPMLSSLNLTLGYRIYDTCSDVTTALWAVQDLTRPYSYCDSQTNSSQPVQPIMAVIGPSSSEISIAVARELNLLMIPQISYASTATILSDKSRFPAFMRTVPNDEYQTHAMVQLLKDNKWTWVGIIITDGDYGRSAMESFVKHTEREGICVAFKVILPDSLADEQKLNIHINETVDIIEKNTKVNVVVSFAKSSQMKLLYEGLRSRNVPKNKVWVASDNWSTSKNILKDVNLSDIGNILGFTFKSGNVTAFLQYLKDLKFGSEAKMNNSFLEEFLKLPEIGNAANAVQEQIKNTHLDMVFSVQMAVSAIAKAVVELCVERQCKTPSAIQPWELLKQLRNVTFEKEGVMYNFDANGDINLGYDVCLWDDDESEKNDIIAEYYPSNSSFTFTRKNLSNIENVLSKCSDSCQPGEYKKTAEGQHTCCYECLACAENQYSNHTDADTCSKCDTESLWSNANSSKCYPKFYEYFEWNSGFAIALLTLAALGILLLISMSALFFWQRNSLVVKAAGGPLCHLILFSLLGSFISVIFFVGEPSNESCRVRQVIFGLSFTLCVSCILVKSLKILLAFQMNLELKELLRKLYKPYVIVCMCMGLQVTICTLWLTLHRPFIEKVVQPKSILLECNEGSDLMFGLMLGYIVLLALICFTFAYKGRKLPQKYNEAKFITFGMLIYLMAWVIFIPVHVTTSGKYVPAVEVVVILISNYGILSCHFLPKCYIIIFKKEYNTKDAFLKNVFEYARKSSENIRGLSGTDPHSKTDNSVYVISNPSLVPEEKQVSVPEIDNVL
# Experiment: IP3 accumulation in receptor 5.24-expressing HEK 293 cells
# Format: cell-based, goldfish
# Conditions: varying concentrations
# Description: High-Affinity Binding of Radiolabeled L-Arginine to the Cloned Goldfish Odorant Receptor. To determine the affinity of the cloned goldfish amino acid receptor for basic amino acids, we characterized the ligand-receptor interaction by radiolabeled ligand binding to receptors expressed in mammalian cells. Human embryonic kidney (HEK) 293 cells were transfected with expression plasmids containing the receptor 5.24 cDNA insert. […] We next wished to determine what second messenger pathway receptor 5.24 couples to in HEK 293 cells. Control cells or cells expressing receptor 5.24 were exposed to varying concentrations of arginine and assayed for the accumulation of IP3 and cAMP.
# IP3 and cAMP Measurements. For measurements of IP3 and cAMP, cell lines 5.24-20 and 2.2-9 (negative control) were plated at densities of 3.5×10^5 cells/well in 24 well plates and incubated overnight in DMEM containing 10% FBS. All subsequent manipulations prior to reaction termination were performed at 37° C. in 5% CO2. […] IP3 levels were determined by a radioreceptor competition assay (Dupont NEN). For cAMP measurements, after the 3 hour amino acid-free preincubation cells were washed once with PBS, preincubated for 15 min in PBS containing 0.5 mM IBMX, and exposed to odorants in 400 μl PBS/0.5 mM IBMX for 30 min. cAMP levels were determined by radioimmunoassay (DuPont NEN).
smiles,measurement,value
N=C(N)NCCC[C@H](N)C(=O)O [L-Arginine],"IP3 accumulation, in words",specific increase in IP3

# Source: patent publication US6410249B1, “Odorant receptors” (priority 1999, dated 2002)
